Consider ten compounds from patent US5001120A, “Use of A-Nor-steroids as malignant cells growth inhibitors” (Natural Pharmacia International, Inc., priority 1989, dated 1991).

In brackets after ≈: the same amount, converted by molar mass. Structures can show the parent of a compound that is named as a salt. Where two headings read alike, the source gives them in different places.

In series [1] the test system is amitotic cells of cultured hamster's ascites tumor. The following applies: Pincus and Gordon (1965); cited from earlier work.
Series [2] relates to lung carcinoma (A-549). Description: In vitro ED50 against tumor cells, A-549. The format is cell-based. To be noted: Homo sapiens. The source says:
(§1) The procedure of Geran, R. T., et al. Cancer Chemother. Rep. (Part 3) 3,1 (1972) (see K. H. Lee et al., Planta Medica, 308, 1988), was employed to determine the in vitro ED50 dose for NPI-007 and NPI-008 against human tumor cells, including the lymphoid leukemia (L 1210), the lung carcinoma (A-549), the ileocecal carcinoma (HCT-8), and the mammary gland carcinoma (MCF-7) cell lines. These cell lines were obtained from the American Type Culture Collection (Rockville, Md.).

The subject of series [3] is ileocecal carcinoma (HCT-8). Description: In vitro ED50 against tumor cells, HCT-8. In kind it is cell-based. The following applies: Homo sapiens.
Excerpt: as §1

In series [4] the test system is Lewis Lung Carcinoma. In words: In vivo Antitumor Activity Against Lewis Lung Carcinoma. The following applies: dosage mg × 7 Days: NPI-008 0.1, Cyclophosphamide 0.4; for Tumor Weight, 3 Days After Treatment: 10 mice, control 310 ± 51.5; for Tumor Weight, 8 Days After Treatment: 11 mice, control 772 ± 360. Details: species or system Mice (DBF1).
For series [5], the system named is lymphoid leukemia (L 1210). Description: In vitro ED50 against tumor cells, L 1210. The format is cell-based.
Excerpt: as §1

Series [6] deals with mammary gland carcinoma (MCF-7). Description: In vitro ED50 against tumor cells, MCF-7. The format is cell-based. The following applies: Homo sapiens.
Excerpt: as §1

For series [7], the system named is Ehrlich ascite tumor (ECA). In words: In vivo Tumor Growth Inhibition Assay, ECA. Details: species or system Swiss albino female mice. To be noted: 0.1 mg/0.05 ml into thigh muscle every other day, 5 treatments; for Inhibition %: wet tumor weight vs control; for Wet Weight of Tumor (treatment group): ± SE (n=5), control 0.4162 ± 0.0767. From the text:
(§2) Swiss albino female mice of 10-12 weeks old, weighing 17-20 grams were separated into two groups.
(§3) Sarcoma-180, Ehrlich ascite tumor (ECA) and U14 cell lines were separately maintained and propagated in MEM-F12 medium supplemented with 10% FCS. The cells were detached to suspension by use of 0.25% trypsin solution. After suspension, the cells were washed once with PBS and resuspended in sample buffered solution. The cells were counted by a coulter particle counting apparatus. Cells sized from 10-100 μ were obtained for calculation of dosage.
(§4) Animals were restrained manually and 0.2 ml cell suspension containing 10^7 to 2×10^7 cells/ml for S180, U14 or ECA were injected subcutaneously in left thorax ventrally adjacent to axillae. The selected A-nor-5α-androstane (5 mg) was dissolved in 2.5 ml phosphate buffered saline (pH 7.4) solution. A solution (0.1 mg/0.05 ml) was injected into thigh muscle every other day for 5 consecutive treatments. The injection site was alternated between right and left legs. […] Control animals received injection of the same amount of PBS in a manner similar to the treated groups.
(§5) At 2 days after the last (5th) treatment, animals were sacrificed by suffocation with carbon dioxide gas. The skin over the tumor site was reflected and the tumor mass dissected free from connective tissue and weighted with an electric balance.

For series [8], the system named is M14. Description: In vivo Tumor Growth Inhibition Assay, M14. More on the design: species or system Swiss albino female mice. To be noted: 0.1 mg/0.05 ml into thigh muscle every other day, 5 treatments; for Inhibition %: wet tumor weight vs control; for Wet Weight of Tumor (treatment group): ± SE (n=5), control 1.1413 ± 0.1225.
For series [9], the system named is Sarcoma-180. In words: In vivo Tumor Growth Inhibition Assay, S180. To be noted: 0.1 mg/0.05 ml into thigh muscle every other day, 5 treatments; for Inhibition %: wet tumor weight vs control; for Wet Weight of Tumor (treatment group): ± SE (n=5), control 2.0939 ± 0.3835. More on the design: species or system Swiss albino female mice.
Excerpt: as §2, §3, §4, §5

The conditions of series [10]: experimental animals (Ku, C.P. et al., 1975); cited from earlier work.
The conditions of series [11]: cited from earlier work.
For series [12] the following is noted: experimental and clinical evidence; cited from earlier work.

Consider 2α,17α-diethyl,2β-17β-diol, for which the “antiestrogenic activity (inhibition of estrogen-induced cell division)” value in series [1] is given as “possess antiestrogenic activity”.
Consider `C#C[C@]1(O)CC[C@H]2[C@@H]3CC[C@H]4C[C@H](C(C)=O)C[C@]4(C)[C@H]3CC[C@@]21C` [2α-acetyl-17α-ethynyl-17β-ol], for which the “antiestrogenic activity (inhibition of estrogen-induced cell division)” value in [1] was “possess antiestrogenic activity”.
With `C#C[C@@]1(O)C[C@@H]2CC[C@@H]3[C@H](CC[C@]4(C)[C@@H](O)CC[C@@H]34)[C@@]2(C)C1` [2α-ethynyl-2β,17β-diol], the “antiestrogenic activity (inhibition of estrogen-induced cell division)” value in series [1] is listed as “possess antiestrogenic activity”.
Consider `C#C[C@@]1(O)C[C@@H]2CC[C@@H]3[C@H](CC[C@@]4(C)[C@H]3CC[C@]4(C)O)[C@@]2(C)C1` [2α-ethynyl-2β, 17β-diol-17α-methyl], for which the “antiestrogenic activity (inhibition of estrogen-induced cell division)” value in series [1] is on record as “possess antiestrogenic activity”.
Regarding `COc1cccc2c1C(=O)c1c(O)c3c(c(O)c1C2=O)C[C@@](O)(C(=O)CO)C[C@@H]3O[C@H]1C[C@H](N)[C@H](O)[C@H](C)O1` [Adriamycin HCl, reference compound], the IC50 came out at 0.16 µg/mL in series [2] (A549, read-out: ED50) and 0.3 µg/mL in series [3] (HCT-8, read-out: ED50).
Regarding `O=P1(N(CCCl)CCCl)NCCCO1` (stereo not shown) [Cyclophosphamide, reference compound], in series [4], the “Tumor Weight, 3 Days After Treatment” value is 130 ± 31 mg and the “Tumor Weight, 8 Days After Treatment” value came to 500 ± 275 mg.
For `C#C[C@@]1(OC(=O)CC)C[C@@H]2CC[C@@H]3[C@H](CC[C@@]4(C)[C@H]3CC[C@]4(C#C)OC(=O)CC)[C@@]2(C)C1` [NPI-007, 2α,17α-diethynyl-A-nor-5α-androstane-2β,17β-diol dipropionate], the IC50 in series [5] (L1210, read-out: ED50) is 4.5 µg/mL (≈ 10.3 µM); in [2] (A549, read-out: ED50), more than 10 µg/mL; in series [3] (HCT-8, read-out: ED50), 0.57 µg/mL (≈ 1.3 µM); in series [6] (MCF7, read-out: ED50) it was 5.9 µg/mL (≈ 13.5 µM). Moreover, the Inhibition % came to 52.9% in series [7], 43.4% in series [8] and 74.1% in series [9]. The figures for the “Wet Weight of Tumor (treatment group)” value in series [7], in series [8] and in [9] were 0.1957 ± 0.0165 g, 0.6464 ± 0.0536 g and 0.5428 ± 0.1059 g, respectively. Besides, the anti-implantation activity entry is given as “significant anti-implantation activity” in series [10] and “significant anti-implantation activity” in series [11] (clinical trials (Hu, C. et al., 1982)). Moreover, the hyperestrogenic side effect entry in [11] (clinical studies (Ku, C.P. et al., 1975)) is “hyperestrogenic side effect has been noted”. In addition, in series [12], the anti-fertility activity result is recorded as “significant anti-fertility activity”.
Take `C#C[C@@]1(OC(=O)CCC(=O)O)C[C@@H]2CC[C@@H]3[C@H](CC[C@@]4(C)[C@H]3CC[C@]4(C#C)OC(=O)CCC(=O)O)[C@@]2(C)C1` [NPI-008, 2α,17α-diethynyl-A-nor-5α-androstane-2β,17β-diol disuccinate]: the IC50 in series [5] (L1210, L 1210, N = 4, read-out: ED50 (the source's name)) is 5.87 µg/mL; in [2] (A549, A-549, N = 4, read-out: ED50 (the source's name)), more than 10 µg/mL; in series [3] (HCT-8, N = 4, read-out: ED50 (the source's name)), 0.41 µg/mL; in series [6] (MCF7, MCF-7, N = 4, read-out: ED50 (the source's name)) it was 7.6 µg/mL. For the same compound, the results for the Inhibition % in series [7], in series [8] and in series [9] were 90.0%, 75.6% and 87.0%, respectively. Moreover, the figures for the “Wet Weight of Tumor (treatment group)” value in series [7], in [8] and in series [9] were 0.0416 ± 0.0120 g, 0.2785 ± 0.0308 g and 0.2722 ± 0.0872 g, respectively. In addition, the “Tumor Weight, 3 Days After Treatment” value in [4] was found to be 168 ± 53 mg. The “Tumor Weight, 8 Days After Treatment” value in series [4] is reported as 175 ± 153 mg.
In the case of `CC[C@]1(O)C[C@@H]2CN(CCc3c([nH]c4ccccc34)[C@@](C(=O)OC)(c3cc4c(cc3OC)N(C)[C@H]3[C@@](O)(C(=O)OC)[C@H](OC(C)=O)[C@]5(CC)C=CCN6CC[C@]43[C@@H]65)C2)C1` [Vinblastine sulfate, reference compound], the IC50 in [2] (A549, read-out: ED50) worked out at 0.003 µg/mL; in series [3] (HCT-8, read-out: ED50), 0.005 µg/mL.
`COc1cc([C@@H]2c3cc4c(cc3[C@@H](O[C@@H]3O[C@@H]5CO[C@@H](C)O[C@H]5[C@H](O)[C@H]3O)[C@H]3COC(=O)[C@H]23)OCO4)cc(OC)c1O` [etoposide, reference compound]: in series [5] (L1210, read-out: ED50), the IC50 came out at 1.58 µg/mL (≈ 2.68 µM).
